pEC50: −log10 of the molar value.

The target in the assay is T1, human M4 muscarinic acetylcholine receptor (Homo sapiens, UniProt P08173).
T1 construct: expressed in transfected cells; host or cells: CHO-K1
T1 sequence (P08173 1-479): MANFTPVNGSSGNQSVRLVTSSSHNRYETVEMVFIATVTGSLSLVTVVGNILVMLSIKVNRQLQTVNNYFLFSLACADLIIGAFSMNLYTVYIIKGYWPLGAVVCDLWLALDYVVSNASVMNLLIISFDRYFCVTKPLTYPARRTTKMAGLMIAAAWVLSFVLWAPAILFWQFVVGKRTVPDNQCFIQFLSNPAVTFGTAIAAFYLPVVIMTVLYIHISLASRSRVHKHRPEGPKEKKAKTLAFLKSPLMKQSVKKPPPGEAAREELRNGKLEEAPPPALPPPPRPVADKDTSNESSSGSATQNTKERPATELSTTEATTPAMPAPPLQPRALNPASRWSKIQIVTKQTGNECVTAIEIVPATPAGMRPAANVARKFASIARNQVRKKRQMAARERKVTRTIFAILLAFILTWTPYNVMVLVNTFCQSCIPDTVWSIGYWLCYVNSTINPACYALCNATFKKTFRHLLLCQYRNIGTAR
Description: human FLIPR-based M4 PAM assay, CHO-K1 cells stably transfected with human M4 receptor and chimeric G-protein Gαqi5. In kind it is cell-based. To be noted: inflection point (IP) of dose response curve; acetylcholine added at 20% of maximum response; CHO-K1 human M4/Gαqi5, FLIPR Tetra. The gist of the method: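 CHO-K1 cells were loaded with calcium dye at 37 °C for ~1 h. Fluorescence (ex 470–495/em 515–575 nm) was read for 4 min after test compound at increasing concentrations, then 3.5 min after acetylcholine at an EC20; sometimes a third addition at EC70 followed. The value is the inflection point of a 4-parameter logistic fit.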
Regarding `COc1ccc(OC2CCN(c3nc(C(=O)NCCc4ccncc4)nc(Cl)c3C)CC2)cn1` [Example 208, 4-chloro-6-(4-((6-methoxypyridin-3-yl)oxy)piperidin-1-yl)-5-methyl-N-(2-(pyridin-4-yl)ethyl)pyrimidine-2-carboxamide], the pEC50 was 6.31. The value for `COc1ccc(OC2CCN(c3nc(C(=O)NC4CCc5ccccc5C4)nc(Cl)c3C)CC2)cn1` (stereo not drawn) [Example 221, 4-chloro-6-(4-((6-methoxypyridin-3-yl)oxy)piperidin-1-yl)-5-methyl-N-(1,2,3,4-tetrahydronaphthalen-2-yl)pyrimidine-2-carboxamide] was 5.74; that for `COc1ccc(OC2CCN(c3nc(O)nc(Cl)c3C)CC2)cn1` [Example 235, 4-chloro-6-(4-((6-methoxypyridin-3-yl)oxy)piperidin-1-yl)-5-methylpyrimidin-2-ol] was 6.61; that for `COc1ccc(OC2CCN(c3nc(C(=O)NC(C)(C)C)nc(Cl)c3C)CC2)cn1` [Example 212] was 6.15. The value for `COc1ccc(OC2CCN(c3nnc(C(=O)NCc4cc(C)n(C)n4)cc3C)CC2)cn1` [Example 155, N-[(1,5-dimethyl-1H-pyrazol-3-yl)methyl]-6-{4-[(6-methoxypyridin-3-yl)oxy]piperidin-1-yl}-5-methylpyridazine-3-carboxamide] was 6.58; that for “6-((1-(6-chloro-2-(hydroxymethyl)-5-methylpyrimidin-4-yl)piperidin-4-yl)oxy)-2-cyclopropylisoindolin-1-one [Example 32]” was 6.73. Under `COc1ccc(OC2CCN(c3nc(S(C)(=O)=O)nc(Cl)c3C)CC2)cc1` [Example 73, 4-chloro-6-(4-(4-methoxyphenoxy)piperidin-1-yl)-5-methyl-2-(methylsulfonyl)pyrimidine] stands 6.85. `COc1ccc(OC2CCN(c3nnc(C(=O)N[C@@H]4CCc5ccccc54)cc3C)CC2)cn1` [Example 179, N-[(1R)-2,3-dihydro-1H-inden-1-yl]-6-{4-[(6-methoxypyridin-3-yl)oxy]piperidin-1-yl}-5-methylpyridazine-3-carboxamide]: the pEC50 is 6.10. The value for `Cc1c(Cl)nc(CO)nc1N1CCC(Oc2ccc3c(c2)OCCO3)CC1` [Example 92, (4-chloro-6-(4-((2,3-dihydrobenzo[b][1,4]dioxin-6-yl)oxy)piperidin-1-yl)-5-methylpyrimidin-2-yl)methanol] was 7.54. Under `COc1ccc(OC2CCN(c3nnc(C(=O)NCc4ccn[nH]4)cc3C)CC2)cn1` [Example 119, 6-{4-[(6-methoxypyridin-3-yl)oxy]piperidin-1-yl}-5-methyl-N-(1H-pyrazol-5-ylmethyl)pyridazine-3-carboxamide] stands 7.02; under `CNc1ncnc(N2CCC(Oc3ccc(OC)nc3)CC2)c1C` [Example 234, 6-(4-((6-methoxypyridin-3-yl)oxy)piperidin-1-yl)-N,5-dimethylpyrimidin-4-amine], 6.87. Under `Cc1cc(C(=O)NCc2ccncc2Cl)nnc1N1CCC(Oc2cccc(C#N)c2)CC1` [Example 151, N-[(3-chloropyridin-4-yl)methyl]-6-[4-(3-cyanophenoxy)piperidin-1-yl]-5-methylpyridazine-3-carboxamide] stands 6.62. Turning to `Cc1c(Cl)nc(CO)nc1N1CCC(Oc2ccc3c(c2)C(=O)CCC3)CC1` [Example 38, 7-((1-(6-chloro-2-(hydroxymethyl)-5-methylpyrimidin-4-yl)piperidin-4-yl)oxy)-3,4-dihydronaphthalen-1(2H)-one], the pEC50 was 6.60. In the case of `Cc1c(Cl)ncnc1N1CCC(Oc2ccc3c(cnn3C)c2)CC1` [Example 60, 5-((1-(6-chloro-5-methylpyrimidin-4-yl)piperidin-4-yl)oxy)-1-methyl-1H-indazole], the pEC50 is 7.17.

`Cc1cc(C(=O)NCc2ccncc2)nnc1N1CCC(Oc2cccc(C#N)c2)CC1` [Example 204A, 6-(4-(3-cyanophenoxy)piperidin-1-yl)-5-methyl-N-(pyridin-4-ylmethyl)pyridazine-3-carboxamide] showed a pEC50 of 7.00. In the case of `Cc1c(-c2ccc(F)cc2)ncnc1N1CCC(Oc2cccc(C#N)c2)CC1` [Example 254, 3-((1-(6-(4-fluorophenyl)-5-methylpyrimidin-4-yl)piperidin-4-yl)oxy)benzonitrile], the pEC50 was 5.61. Against the preceding molecule, the pEC50 is 1.39 log units lower. With `COc1ccc(OC2CCN(c3nnc(C(=O)Nc4ccncc4)cc3C)CC2)cn1` [Example 120, 6-{4-[(6-methoxypyridin-3-yl)oxy]piperidin-1-yl}-5-methyl-N-pyridin-4-ylpyridazine-3-carboxamide], the negative logarithm of the EC50 (pEC50) was 7.02. This pEC50 lies 1.41 log units higher than the previous one. The value for `Cc1ncc(C)c(N2CCC(Oc3ccc4c(c3)C(=O)NC4)CC2)n1` [Example 100, 6-((1-(2,5-dimethylpyrimidin-4-yl)piperidin-4-yl)oxy)isoindolin-1-one] was 6.17; that for `Cc1c(Cl)nc(CO)nc1N1CCC(Oc2ccc3ccc(=O)oc3c2)CC1` [Example 2, 7-((1-(6-chloro-2-(hydroxymethyl)-5-methylpyrimidin-4-yl)piperidin-4-yl)oxy)-2H-chromen-2-one] was 6.37; that for `Cc1ncc(C)c(N2CCC(Oc3ccc(OCC(C)(C)N)nc3)CC2)n1` [Example 72, 1-((5-((1-(2,5-dimethylpyrimidin-4-yl)piperidin-4-yl)oxy)pyridin-2-yl)oxy)-2-methylpropan-2-amine] was 6.85. Under `Cc1cc(C(=O)NC2C3CC2C3)nnc1N1CCC(Oc2ccc3[nH]ncc3c2)CC1` (stereo not drawn) [Example 124, N-bicyclo[1.1.1]pent-2-yl-6-[4-(1H-indazol-5-yloxy)piperidin-1-yl]-5-methylpyridazine-3-carboxamide] stands 7.00; under `COC(=O)c1cc(C(=O)OC)c(N2CCC(Oc3ccc(OC)nc3)CC2)nc1C#N` [Example 46, dimethyl 2-cyano-6-(4-((6-methoxypyridin-3-yl)oxy)piperidin-1-yl)pyridine-3,5-dicarboxylate], 6.03.

Consider `COc1ccc(OC2CCN(c3nc(SC)ncc3C#N)CC2)cc1` [Example 95, 4-(4-(4-methoxyphenoxy)piperidin-1-yl)-2-(methylthio)pyrimidine-5-carbonitrile], for which the pEC50 was 6.10. The value for `COc1ccc(OC2CCN(c3ncnc(C)c3C)CC2)cn1` [Example 242, 4-(4-((6-methoxypyridin-3-yl)oxy)piperidin-1-yl)-5,6-dimethylpyrimidine] was 6.84; that for `Cc1ncc(C)c(N2CC[C@H](Oc3cccc(C#N)c3)[C@H](F)C2)n1` [Example 81, 3-(((3R,4S)-1-(2,5-dimethylpyrimidin-4-yl)-3-fluoropiperidin-4-yl)oxy)benzonitrile] was 6.53. Molecule `COc1ccc(OC2CCN(c3nc(C(=O)NC4CCCc5cnccc54)nc(Cl)c3C)CC2)cn1` (stereo not drawn) [Example 214, 4-chloro-6-(4-((6-methoxypyridin-3-yl)oxy)piperidin-1-yl)-5-methyl-N-(5,6,7,8-tetrahydroisoquinolin-5-yl)pyrimidine-2-carboxamide] showed a pEC50 of 6.11. `Cc1cc(C(=O)NCc2ccncc2)nnc1N1CCC(Oc2ccccc2)CC1` [Example 114, 5-methyl-6-(4-phenoxypiperidin-1-yl)-N-(pyridin-4-ylmethyl)pyridazine-3-carboxamide] showed a pEC50 of 7.28. `COc1ccc(OC2CCN(c3nnc(C(=O)NCCc4ccccc4)cc3C)CC2)cn1` [Example 196, 6-{4-[(6-methoxypyridin-3-yl)oxy]piperidin-1-yl}-5-methyl-N-(2-phenylethyl)pyridazine-3-carboxamide]: the pEC50 was 7.13. As to `COc1ccc(OC2CCN(c3nc(CO)nc(C)c3C)CC2)cn1` [Example 241, (4-(4-((6-Methoxypyridin-3-yl)oxy)piperidin-1-yl)-5,6-dimethylpyrimidin-2-yl)methanol], the pEC50 is 7.38. The value for `COc1ccc(O[C@@H]2CCN(c3nnc(C(=O)N[C@@H]4CCc5ncccc5C4)cc3C)C[C@@H]2F)cn1` [Example 138B, 6-((3S,4R)-3-fluoro-4-((6-methoxypyridin-3-yl)oxy)piperidin-1-yl)-5-methyl-N-((R)-5,6,7,8-tetrahydroquinolin-6-yl)pyridazine-3-carboxamide] was 6.61; that for `COCc1nc(Cl)c(C)c(N2CCC(Oc3ccc(OC)nc3)CC2)n1` [Example 78, 4-chloro-2-(methoxymethyl)-6-(4-((6-methoxypyridin-3-yl)oxy)piperidin-1-yl)-5-methylpyrimidine] was 6.73. The value for `COc1ccc(OC2CCN(c3nc(C)nc(C)c3C)CC2)cn1` [Example 104, 4-(4-((6-methoxypyridin-3-yl)oxy)piperidin-1-yl)-2,5,6,-trimethylpyrimidine] was 7.04. Under `Cc1c(-c2cccnc2)ncnc1N1CCC(Oc2cccc(C#N)c2)CC1` [Example 244, 3-((1-(5-methyl-6-(pyridin-3-yl)pyrimidin-4-yl)piperidin-4-yl)oxy)benzonitrile] stands 6.34.

In general, pEC50 refers to −log10 of the EC50, conventionally taken in molar units. Higher therefore signals a low EC50.

The record behind these values is patent US11319298B2 (Merck Sharp & Dohme Corp., priority 2016, dated 2022).
